Earlier results, collected in US20110150817A1, “FRESHENING COMPOSITIONS COMPRISING MALODOR BINDING POLYMERS AND MALODOR CONTROL COMPONENTS” (priority 2009, published 2011).

Conditions: acid catalysts, as reported by Scifinder; cited from earlier work

SMILES	VP (torr) @25° C.
CC(=O)O [Acetic Acid]	13.9 torr
O=C(O)c1ccccc1 [Benzoic acid]	0.014 torr
CCCCCCCC(=O)O [Caprylic acid]	0.0222 torr
O=CO [Formic Acid]	36.5 torr
Cc1cc(C)cc(C(=O)O)c1 [Mesitylenic acid]	0.00211 torr
Oc1ccccc1 [Phenol]	0.610 torr
O=C(O)CCC(=O)O [Succinic acid]	0.0165 torr
C/C=C(\C)C(=O)O [Tiglic acid]	0.152 torr
CC(C)(C)C(=O)O [Trimethyl Acetic Acid]	0.907 torr
